Experimental data taken from ChEMBL document CHEMBL3046461, “Synthesis and herbicidal activity of sulfonanilides having a pyrimidinyl-containing group at the 2-position” (J Pestic Sci, 2011).

Tests used:
[1] = tested on: Schoenoplectiella juncoides; experiment: Herbicidal activity against Schoenoplectiella juncoides subsp. Hotarui (Ohwi) T. Koyama assessed as induction of crop damage after 28 days post compound application; assay type: functional
Pontederia vaginalis = experiment: Herbicidal activity against Monochoria vaginalis assessed as induction of crop damage after 28 days post compound application; assay type: functional
Echinochloa oryzicola = experiment: Herbicidal activity against Echinochloa oryzicola assessed as induction of crop damage after 28 days post compound application; assay type: functional
Oryza sativa = experiment: Phytotoxicity against two-leaf stage paddy Oryza sativa (rice) seedlings assessed as induction of crop damage after 28 days post compound application; assay type: organism-based; conditions: in vivo, 672 h

Row | Structure (SMILES) | ED90 [1] [gAi/ha] | ED90 (Pontederia vaginalis) [gAi/ha] | ED20 (Echinochloa oryzicola) [gAi/ha] | ED20 (Oryza sativa) [gAi/ha]
1 | COCc1cccc(C(O)c2nc(OC)cc(OC)n2)c1NS(=O)(=O)C(F)F (stereo unspecified) | 4 | 4 | 16 | 63
2 | CCOc1cccc(C(O)c2nc(OC)cc(OC)n2)c1NS(=O)(=O)C(F)F (stereo unspecified) | 16 | 16 | 63 | 16
3 | CCCOc1cccc(C(O)c2nc(OC)cc(OC)n2)c1NS(=O)(=O)C(F)F (stereo unspecified) | 250 | 63 | 250 | 63
4 | COc1cc(OC)nc(C(O)c2cccc(Oc3ccccc3)c2NS(=O)(=O)C(F)F)n1 (stereo unspecified) | >1000 | 250 | >1000 | 1000
5 | COc1cc(OC)nc(C(O)c2cccc(SC)c2NS(=O)(=O)C(F)F)n1 (stereo unspecified) | 63 | 63 | 250 | 63
6 | CCSC(c1nc(OC)cc(OC)n1)c1ccccc1NS(=O)(=O)C(F)(F)F (stereo unspecified) | 4 | 16 | 1000 | 63
7 | CC[S+]([O-])C(c1nc(OC)cc(OC)n1)c1ccccc1NS(=O)(=O)C(F)(F)F (stereo unspecified) | 63 | 1000 | >1000 | 1000
8 | CCS(=O)(=O)C(c1nc(OC)cc(OC)n1)c1ccccc1NS(=O)(=O)C(F)(F)F (stereo unspecified) | 250 | 250 | >1000 | 1000
9 | COc1cc(OC)nc(C(O)c2c(F)cccc2NS(=O)(=O)C(F)F)n1 (stereo unspecified) | 16 | 16 | 63 | 16
10 | COc1cc(OC)nc(C(O)c2c(Cl)cccc2NS(=O)(=O)C(F)F)n1 (stereo unspecified) | 250 | 64 | >1000 | 1000
11 | COc1cc(OC)nc(C(O)c2cc(Cl)ccc2NS(=O)(=O)C(F)F)n1 (stereo unspecified) | >1000 | 1000 | >1000 | 1000
12 | COc1ccc(NS(=O)(=O)C(F)F)c(C(O)c2nc(OC)cc(OC)n2)c1 (stereo unspecified) | >1000 | 250 | >1000 | 63
13 | COc1cc(OC)nc(C(O)c2ccc(Cl)cc2NS(=O)(=O)C(F)F)n1 (stereo unspecified) | 63 | 63 | 250 | 63
14 | COc1cc(OC)nc(C(O)c2ccc(C)cc2NS(=O)(=O)C(F)F)n1 (stereo unspecified) | 16 | 16 | 1000 | 16
15 | COc1ccc(C(O)c2nc(OC)cc(OC)n2)c(NS(=O)(=O)C(F)F)c1 (stereo unspecified) | 63 | 16 | 16 | 16
16 | COc1cc(OC)nc(C(O)c2cccc(F)c2NS(=O)(=O)C(F)F)n1 (stereo unspecified) | 4 | 4 | 250 | 16
17 | COc1cc(OC)nc(C(O)c2cccc(C)c2NS(=O)(=O)C(F)F)n1 (stereo unspecified) | 16 | 4 | 16 | 16
18 | COc1cc(OC)nc(C(O)c2cccc(OC)c2NS(=O)(=O)C(F)F)n1 (stereo unspecified) | 63 | 16 | 16 | 4
19 | CCc1cccc(C(O)c2nc(OC)cc(OC)n2)c1NS(=O)(=O)C(F)F (stereo unspecified) | 4 | 16 | 16 | 63
20 | CCCc1cccc(C(O)c2nc(OC)cc(OC)n2)c1NS(=O)(=O)C(F)F (stereo unspecified) | 63 | 16 | 16 | 63

Row | Structure (SMILES) | ED90 [1] [gAi/ha] | ED90 (Pontederia vaginalis) [gAi/ha] | ED20 (Echinochloa oryzicola) [gAi/ha] | ED20 (Oryza sativa) [gAi/ha]
21 | COc1cc(OC)nc(C(O)c2ccccc2NS(=O)(=O)CF)n1 (stereo unspecified) | 16 | 16 | 63 | 63
22 | COc1cc(OC)nc(C(O)c2ccccc2NS(=O)(=O)CCl)n1 (stereo unspecified) | 63 | 16 | 1000 | 250
23 | COc1cc(OC)nc(C(O)c2ccccc2NS(=O)(=O)CC#N)n1 (stereo unspecified) | 250 | 63 | 1000 | 250
24 | COc1cc(OC)nc(C(O)c2ccccc2NS(=O)(=O)C/C=C/Cl)n1 (stereo unspecified) | 1000 | 250 | >1000 | 250
25 | COc1cc(OC)nc(C(O)c2ccccc2NS(C)(=O)=O)n1 (stereo unspecified) | >1000 | 250 | 1000 | 63
26 | CCS(=O)(=O)Nc1ccccc1C(O)c1nc(OC)cc(OC)n1 (stereo unspecified) | >1000 | 1000 | 1000 | 1000
27 | COc1cc(OC)nc(C(O)c2ccccc2NS(=O)(=O)C(C)C)n1 (stereo unspecified) | >1000 | 1000 | >1000 | 1000
28 | COc1cc(OC)nc(C(O)c2ccccc2NS(=O)(=O)c2ccccc2)n1 (stereo unspecified) | >1000 | 1000 | >1000 | 1000
29 | COc1cc(OC)nc(C(O)c2ccccc2NS(N)(=O)=O)n1 (stereo unspecified) | >1000 | 1000 | 1000 | 250
30 | COc1cc(OC)nc(C(=O)c2ccccc2NS(=O)(=O)C(F)(F)F)n1 | 16 | 16 | 1000 | 63
31 | COc1cc(OC)nc(C(OC)c2ccccc2NS(=O)(=O)C(F)(F)F)n1 (stereo unspecified) | 63 | 16 | 63 | 63
32 | COc1cc(OC)nc(C(O[Si](C)(C)C)c2ccccc2NS(=O)(=O)C(F)(F)F)n1 (stereo unspecified) | 4 | 4 | 1000 | 63
33 | COc1cc(OC)nc(C(OC(C)=O)c2ccccc2NS(=O)(=O)C(F)(F)F)n1 (stereo unspecified) | 4 | 16 | >1000 | 63
34 | C/C=N/OC(c1nc(OC)cc(OC)n1)c1ccccc1NS(=O)(=O)C(F)(F)F (stereo unspecified) | 16 | 63 | 1000 | 63
35 | COc1cc(OC)nc(C(Cl)c2ccccc2NS(=O)(=O)C(F)(F)F)n1 (stereo unspecified) | 4 | 16 | 1000 | 63
36 | COc1cc(OC)nc(C(c2ccccc2NS(=O)(=O)C(F)(F)F)N(C)C)n1 (stereo unspecified) | 16 | 63 | >1000 | 250
37 | COc1cc(OC)nc(C(S)c2ccccc2NS(=O)(=O)C(F)(F)F)n1 (stereo unspecified) | 63 | 63 | >1000 | 250
38 | COc1cc(OC)nc(C(O)c2ccccc2NS(=O)(=O)C(F)(F)F)n1 (stereo unspecified) | 4 | 4 | 1000 | 63
39 | COc1cc(OC)nc(C(O)c2ccccc2NS(=O)(=O)C(F)F)n1 (stereo unspecified) | 16 | 4 | 250 | 63
